Laboratory results reported in patent US20240300932A1, “N-PHENYLIMINE DERIVATIVE AND PREPARATION METHOD AND USE THEREOF” (Guizhou University, priority 2023, published 2024).

What was measured:
Test in all cases: Post-emergence herbicidal activity test (stem and leaf spray, pot culture)
Format in all cases: in vivo
Settings in all cases: 3 weeks after spraying
Amaranthus retroflexus = test system: Amaranthus retroflexus
How it was run: (§1)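 Pot-grown weeds in loam (pH 7, 1.63% organic matter) were spray-treated on stems and leaves at the 2- to 3-leaf stage with compound in acetone/Tween 80 plus 1.5 liters/ha methyl oleate at 10, 5 or 2.5 g/mu. Fresh-weight growth control was scored 3 weeks later as grades 0–5.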

Portulaca oleracea = test system: Portulaca oleracea
How it was run: as §1

Echinochloa crusgalli = test system: Echinochloa crusgalli
How it was run: as §1

Setaria viridis = test system: Setaria viridis
How it was run: as §1

Abutilon theophrasti = test system: Abutilon theophrasti
How it was run: as §1

Trifoliumre pensL. = test system: Trifoliumre pensL.
How it was run: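 Rates of 10, 5 and 2.5 g/mu were applied in a single spray-tower treatment to 2–3-leaf plants, thinned to 10 per pot. Formulation: acetone solution, Tween 80, 1.5 L/ha methyl oleate synergist. Weed response assessed after 3 further greenhouse weeks; mean of three experiments.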

| Compound | Post-emergence herbicidal activity, A. retroflexus (grade) (Amaranthus retroflexus; dosage 2.5 g/mu) | Post-emergence herbicidal activity, A. retroflexus (grade) (Amaranthus retroflexus; dosage 5 g/mu) | Post-emergence herbicidal activity, A. retroflexus (grade) (Amaranthus retroflexus; dosage 10 g/mu) | Post-emergence herbicidal activity, P. oleracea (grade) (Portulaca oleracea; dosage 2.5 g/mu) | Post-emergence herbicidal activity, P. oleracea (grade) (Portulaca oleracea; dosage 5 g/mu) | Post-emergence herbicidal activity, P. oleracea (grade) (Portulaca oleracea; dosage 10 g/mu) | Post-emergence herbicidal activity, E. crusgalli (grade) (Echinochloa crusgalli; dosage 2.5 g/mu) | Post-emergence herbicidal activity, E. crusgalli (grade) (Echinochloa crusgalli; dosage 5 g/mu) | Post-emergence herbicidal activity, E. crusgalli (grade) (Echinochloa crusgalli; dosage 10 g/mu) | Post-emergence herbicidal activity, S. viridis (grade) (Setaria viridis; dosage 2.5 g/mu) | Post-emergence herbicidal activity, S. viridis (grade) (Setaria viridis; dosage 5 g/mu) | Post-emergence herbicidal activity, S. viridis (grade) (Setaria viridis; dosage 10 g/mu) | Post-emergence herbicidal activity, A. theophrasti (grade) (Abutilon theophrasti; dosage 2.5 g/mu) | Post-emergence herbicidal activity, A. theophrasti (grade) (Abutilon theophrasti; dosage 5 g/mu) | Post-emergence herbicidal activity, A. theophrasti (grade) (Abutilon theophrasti; dosage 10 g/mu) | Post-emergence herbicidal activity, Trifoliumre pensL. (grade) (Trifoliumre pensL.; dosage 2.5 g/mu) | Post-emergence herbicidal activity, Trifoliumre pensL. (grade) (Trifoliumre pensL.; dosage 5 g/mu) | Post-emergence herbicidal activity, Trifoliumre pensL. (grade) (Trifoliumre pensL.; dosage 10 g/mu) |
| --- | --- | --- | --- | --- | --- | --- | --- | --- | --- | --- | --- | --- | --- | --- | --- | --- | --- | --- |
| COc1ccccc1C(=O)COc1cc(N2C(=O)C3=C(CCCC3)C2=O)c(F)cc1Cl [Compound C6, 2-(4-chloro-2-fluoro-5-(2-oxo-2-(2-methoxyphenyl)ethoxy)phenyl)-4,5,6,7-tetrahydro-1H-isoindole-1,3(2H)-dione] | 5 (Grade 5: the growth control rate is greater than or equal to 85%) | 5 (Grade 5: the growth control rate is greater than or equal to 85%) | 5 (Grade 5: the growth control rate is greater than or equal to 85%) | 5 (Grade 5: the growth control rate is greater than or equal to 85%) | 5 (Grade 5: the growth control rate is greater than or equal to 85%) | 5 (Grade 5: the growth control rate is greater than or equal to 85%) | 1 (Grade 1: the growth control rate is greater than or equal to 5% and less than 20%) | 2 (Grade 2: the growth control rate is greater than or equal to 20% and less than 40%) | 3 (Grade 3: the growth control rate is greater than or equal to 40% and less than 60%) | 2 (Grade 2: the growth control rate is greater than or equal to 20% and less than 40%) | 3 (Grade 3: the growth control rate is greater than or equal to 40% and less than 60%) | 4 (Grade 4: the growth control rate is greater than or equal to 60% and less than 85%) | 5 (Grade 5: the growth control rate is greater than or equal to 85%) | 5 (Grade 5: the growth control rate is greater than or equal to 85%) | 5 (Grade 5: the growth control rate is greater than or equal to 85%) | 5 (Grade 5: the growth control rate is greater than or equal to 85%) | 5 (Grade 5: the growth control rate is greater than or equal to 85%) | 5 (Grade 5: the growth control rate is greater than or equal to 85%) |
| O=C(COc1cc(N2C(=O)C3=C(CCCC3)C2=O)c(F)cc1Cl)c1cccc(F)c1 [Compound C7, 2-(4-chloro-2-fluoro-5-(2-oxo-2-(3-fluorophenyl)ethoxy)phenyl)-4,5,6,7-tetrahydro-1H-isoindole-1,3(2H)-dione] | 5 (Grade 5: the growth control rate is greater than or equal to 85%) | 5 (Grade 5: the growth control rate is greater than or equal to 85%) | 5 (Grade 5: the growth control rate is greater than or equal to 85%) | 5 (Grade 5: the growth control rate is greater than or equal to 85%) | 5 (Grade 5: the growth control rate is greater than or equal to 85%) | 5 (Grade 5: the growth control rate is greater than or equal to 85%) | 1 (Grade 1: the growth control rate is greater than or equal to 5% and less than 20%) | 2 (Grade 2: the growth control rate is greater than or equal to 20% and less than 40%) | 3 (Grade 3: the growth control rate is greater than or equal to 40% and less than 60%) | 2 (Grade 2: the growth control rate is greater than or equal to 20% and less than 40%) | 3 (Grade 3: the growth control rate is greater than or equal to 40% and less than 60%) | 4 (Grade 4: the growth control rate is greater than or equal to 60% and less than 85%) | 5 (Grade 5: the growth control rate is greater than or equal to 85%) | 5 (Grade 5: the growth control rate is greater than or equal to 85%) | 5 (Grade 5: the growth control rate is greater than or equal to 85%) | 5 (Grade 5: the growth control rate is greater than or equal to 85%) | 5 (Grade 5: the growth control rate is greater than or equal to 85%) | 5 (Grade 5: the growth control rate is greater than or equal to 85%) |
| O=C(CCl)Nc1cc(N2C(=O)C3=C(CCCC3)C2=O)c(F)cc1Cl [Compound D2, 2-chloro-N-(2-chloro-5-(1,3-dioxo-1,3,4,5,6,7-hexahydro-2H-isoindole-2-yl)-4-fluorophenyl)acetamide] |  |  | 5 (Grade 5: the growth control rate is greater than or equal to 85%) |  |  | 5 (Grade 5: the growth control rate is greater than or equal to 85%) |  |  | 3 (Grade 3: the growth control rate is greater than or equal to 40% and less than 60%) |  |  | 3 (Grade 3: the growth control rate is greater than or equal to 40% and less than 60%) |  |  | 5 (Grade 5: the growth control rate is greater than or equal to 85%) |  |  | 5 (Grade 5: the growth control rate is greater than or equal to 85%) |
| CC(Br)C(=O)Nc1cc(N2C(=O)C3=C(CCCC3)C2=O)c(F)cc1Cl (stereo not drawn) [Compound D3, 2-bromo-N-(2-chloro-5-(1,3-dioxo-1,3,4,5,6,7-hexahydro-2H-isoindol-2-yl)-4-fluorophenyl)propionamide] |  |  | 5 (Grade 5: the growth control rate is greater than or equal to 85%) |  |  | 5 (Grade 5: the growth control rate is greater than or equal to 85%) |  |  | 3 (Grade 3: the growth control rate is greater than or equal to 40% and less than 60%) |  |  | 3 (Grade 3: the growth control rate is greater than or equal to 40% and less than 60%) |  |  | 5 (Grade 5: the growth control rate is greater than or equal to 85%) |  |  | 5 (Grade 5: the growth control rate is greater than or equal to 85%) |
| CC(C)(CCl)C(=O)Nc1cc(N2C(=O)C3=C(CCCC3)C2=O)c(F)cc1Cl [Compound D4, 3-chloro-N-(2-chloro-5-(1,3-dioxo-1,3,4,5,6,7-hexahydro-2H-isoindole-2-yl)-4-fluorophenyl)-2,2-dimethylpropionamide] |  |  | 5 (Grade 5: the growth control rate is greater than or equal to 85%) |  |  | 5 (Grade 5: the growth control rate is greater than or equal to 85%) |  |  | 3 (Grade 3: the growth control rate is greater than or equal to 40% and less than 60%) |  |  | 3 (Grade 3: the growth control rate is greater than or equal to 40% and less than 60%) |  |  | 5 (Grade 5: the growth control rate is greater than or equal to 85%) |  |  | 5 (Grade 5: the growth control rate is greater than or equal to 85%) |
| CCOC(=O)CC(=O)Nc1cc(N2C(=O)C3=C(CCCC3)C2=O)c(F)cc1Cl [Compound D6, 3-((2-chloro-5-(1,3-dioxo-1,3,4,5,6,7-hexahydro-2H-isoindole-2-yl)-4-fluorophenyl)amino)-ethyl 3-oxopropanoate] |  |  | 5 (Grade 5: the growth control rate is greater than or equal to 85%) |  |  | 5 (Grade 5: the growth control rate is greater than or equal to 85%) |  |  | 3 (Grade 3: the growth control rate is greater than or equal to 40% and less than 60%) |  |  | 3 (Grade 3: the growth control rate is greater than or equal to 40% and less than 60%) |  |  | 5 (Grade 5: the growth control rate is greater than or equal to 85%) |  |  | 5 (Grade 5: the growth control rate is greater than or equal to 85%) |
| CCCCCCCCC(=O)Nc1cc(N2C(=O)C3=C(CCCC3)C2=O)c(F)cc1Cl [Compound D7, N-(2-chloro-5-(1,3-dioxo-1,3,4,5,6,7-hexahydro-2H-isoindole-2-yl)-4-fluorophenyl)nonanamide] |  |  | 5 (Grade 5: the growth control rate is greater than or equal to 85%) |  |  | 5 (Grade 5: the growth control rate is greater than or equal to 85%) |  |  | 3 (Grade 3: the growth control rate is greater than or equal to 40% and less than 60%) |  |  | 4 (Grade 4: the growth control rate is greater than or equal to 60% and less than 85%) |  |  | 5 (Grade 5: the growth control rate is greater than or equal to 85%) |  |  | 5 (Grade 5: the growth control rate is greater than or equal to 85%) |
